Test results reported in patent publication US20050148534A1, “Small molecule compositions and methods for increasing drug efficiency using compositions thereof” (priority 2003, published 2005).

Experiments:
[1] = tested on: Normal human foreskin fibroblasts (HFF); assay: Cytotoxicity assay (monolayer), HFF; assay type: cell-based; details: Fibroblast, monolayer, 72 hours, AlamarBlue, read-out: HFF (EC50 Ave) ML
Experimental: (§1) Statistical Assoc., 81, 991-999, 1986.
(§2) Monolayer assays with tumor cell lines (MCF-7 breast carcinoma and HT-29 colorectal carcinoma from ATCC) were carried out in triplicate in 96-well plates with RPMI1640 medium containing 5% fetal bovine serum, 100 U/ml penicillin and 100 μg/ml streptomycin. Normal human foreskin fibroblasts (HFF #CC-2509) were from Cambrex and were cultured in FGM-2 medium. Exponentially growing cells (5,000 MCF-7 or HT-29; 1,500 HFF) were plated in 100 μl medium and incubated overnight (5% CO2, 37° C.). Compounds (20 pM to 20 μM final concentration, 6-8 doses) and vehicle (DMSO) controls were added and the incubation was continued for an additional 72 hours. Final cell density was determined by incubating cultures with 25 μl AlamarBlue reagent (BioSource, Camarillo, Calif.) for 4 hours, followed by determination of fluorescence at excitation of 544 nm and emission of 590 nm with a SpectroMax Gemini EM fluorescence plate reader (Molecular Devices, Sunnyvale, Calif.). EC50 values were generated from dose-response curves by a 4-parameter method using Softmax PRO software. Mean EC50s (±SD) represent the average of all tests carried out for all lots of a given compound. […] Statistical Assoc., 81, 991-999 (1986).

[2] = tested on: HT29; assay: Cytotoxicity assay, HT29 SSA (SSA not explained); assay type: cell-based; details: Homo sapiens, HT-29; read-out: HT29 (EC50 Ave) SSA
[3] = tested on: MCF-7 breast carcinoma; assay: Cytotoxicity assay (soft agar), MCF-7; details: Homo sapiens, MCF7, read-out: MCF7 (EC50 Ave) SA
[4] = tested on: MCF7; assay: Cytotoxicity assay, MCF7 SSA (SSA not explained); assay type: cell-based; details: Homo sapiens
[5] = target: T1, Human thymidine kinase 1 (TK1) (Homo sapiens, UniProt P04183); assay: Thymidine kinase coupled (kinetic) ATP depletion assay; assay type: biochemical; details: initial velocity relative to thymidine; 100 μM conjugate
T1 construct: His tag (from pET28b(+)) (N); made in house; host or cells: E. coli BL21-codon plus
T1 sequence (P04183 1-234): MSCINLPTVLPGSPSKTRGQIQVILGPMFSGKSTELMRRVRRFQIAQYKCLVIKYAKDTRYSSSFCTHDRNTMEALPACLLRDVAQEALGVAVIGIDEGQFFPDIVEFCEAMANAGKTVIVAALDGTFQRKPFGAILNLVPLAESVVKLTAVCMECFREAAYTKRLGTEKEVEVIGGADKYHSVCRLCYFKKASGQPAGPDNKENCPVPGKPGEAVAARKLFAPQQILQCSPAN
Experimental: Thymidine kinase, viral thymidine kinase, TK-1 deoxycytidine kinase, and deoxyguanosine kinase activities are determined by subjecting a first end of a linker used in synthesizing linker-substrate constructs to a first test. The first test may involve observing ADP formation, an obligatory co-product of phospho group transfer from ATP which is catalyzed by the kinase to the C5′ hydroxyl group or its equivalent in the nucleoside or nucleoside analog. Formation of ADP is followed by a coupled enzyme assay well known in the art. ADP, formed from kinase phosphorylation, is used by pyruvate kinase to generate pyruvate from phosphoenolpyruvate which in turn is converted to lactate by lactate dehydrogenase. The lactate results in the consumption of NADH which is followed spectrophotometrically. The rate of nucleoside phosphorylation is then directly related to the rate of decrease in the observed NADH signal.
TK1 was amplified using PCR with forward primer 5′-[…]-3′ and reverse primer 5′-[…]-3′. The PCR product was digested with Nde I and Hind III. An N-terminal His-tagged TK1 construct, TK1/pET28b(+), was generated by subcloning TK1 into the Nde I and Hind III sites of prokaryotic expression vector pET28b (+) (Novagen, San Diego, Calif.). TK1 was expressed from TK1/pET28b(+) using E. coli strain BL21-codon plus (Stratagene, San Diego, Calif.) and purified by Ni column chromatography.
A coupled (kinetic) ATP depletion assay was developed to measure thymidine kinase activity. The reaction contained 100 mM Tris HCl, pH 7.5, 20 mM MgCl2, 100 mM KCl, 0.4 mM PEP, 0.2 mM NADH, Pyruvate Kinase (0.7 units)/Lactate Dehydrogenase (1.0 unit) (Sigma #PO294), 2.5-10 μg Thymidine Kinase, 100 μM thymidine or thymidine-drug conjugate in a volume of 75 μl. ATP (5 mM in 25 μl H2O) was added to initiate the reaction and the velocity of ATP depletion was monitored at 340 nm continuously for 15 minutes.

[6] = tested on: HT-29 colorectal carcinoma; assay: Cytotoxicity assay (soft agar), HT-29; details: Homo sapiens, HT-29, read-out: HT29 (EC50 Ave) SA
[7] = tested on: breast carcinoma, colon carcinoma and leukemia; assay: Cytotoxicity of drug-thymidine conjugates (Example 22); assay type: cell-based
[8] = tested on: HT-29 colorectal carcinoma; assay: Cytotoxicity assay (monolayer), HT-29; assay type: cell-based; details: Homo sapiens, monolayer, 72 hours, AlamarBlue, read-out: HT29 (EC50 Ave) ML
Experimental: as §1, §2

[9] = tested on: tubulin; assay: Fluorescence-based microtubule polymerization assay (MPA); assay type: biochemical; details: mean percentage of paclitaxel or vinblastine activity; 0.75-10 micromolar
How it was run: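 Tubulin polymerization was followed by fluorescence (ex 360/em 405 nm) in a commercial kit with 1 mg/ml BSA added to every assay, glycerol being omitted for paclitaxel conjugates. Parent drugs and conjugates were tested at 0.75, 1.5, 3 and 10 micromolar final. Curves from the linear range of the dose responses were compared.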

[10] = tested on: MCF-7 breast carcinoma; assay: Cytotoxicity assay (monolayer), MCF-7; assay type: cell-based; details: Homo sapiens, MCF7; monolayer, 72 hours, AlamarBlue; read-out: MCF7 (EC50 Ave) ML
Experimental: as §1, §2

[11] = tested on: HUVEC; assay: Cytotoxicity assay (monolayer), HUVEC; assay type: cell-based; details: Homo sapiens, read-out: HUVEC (EC50 Ave) ML
[12] = target: T2, Topoisomerase II (Homo sapiens, UniProt P11388); assay: Topoisomerase II assay; assay type: biochemical; details: doxorubicin and its conjugates; percent activity of Doxorubicin
T2 construct: purchased TopoGEN Inc. (Columbus, Ohio) 1009-1
T2 sequence (P11388 whole entry): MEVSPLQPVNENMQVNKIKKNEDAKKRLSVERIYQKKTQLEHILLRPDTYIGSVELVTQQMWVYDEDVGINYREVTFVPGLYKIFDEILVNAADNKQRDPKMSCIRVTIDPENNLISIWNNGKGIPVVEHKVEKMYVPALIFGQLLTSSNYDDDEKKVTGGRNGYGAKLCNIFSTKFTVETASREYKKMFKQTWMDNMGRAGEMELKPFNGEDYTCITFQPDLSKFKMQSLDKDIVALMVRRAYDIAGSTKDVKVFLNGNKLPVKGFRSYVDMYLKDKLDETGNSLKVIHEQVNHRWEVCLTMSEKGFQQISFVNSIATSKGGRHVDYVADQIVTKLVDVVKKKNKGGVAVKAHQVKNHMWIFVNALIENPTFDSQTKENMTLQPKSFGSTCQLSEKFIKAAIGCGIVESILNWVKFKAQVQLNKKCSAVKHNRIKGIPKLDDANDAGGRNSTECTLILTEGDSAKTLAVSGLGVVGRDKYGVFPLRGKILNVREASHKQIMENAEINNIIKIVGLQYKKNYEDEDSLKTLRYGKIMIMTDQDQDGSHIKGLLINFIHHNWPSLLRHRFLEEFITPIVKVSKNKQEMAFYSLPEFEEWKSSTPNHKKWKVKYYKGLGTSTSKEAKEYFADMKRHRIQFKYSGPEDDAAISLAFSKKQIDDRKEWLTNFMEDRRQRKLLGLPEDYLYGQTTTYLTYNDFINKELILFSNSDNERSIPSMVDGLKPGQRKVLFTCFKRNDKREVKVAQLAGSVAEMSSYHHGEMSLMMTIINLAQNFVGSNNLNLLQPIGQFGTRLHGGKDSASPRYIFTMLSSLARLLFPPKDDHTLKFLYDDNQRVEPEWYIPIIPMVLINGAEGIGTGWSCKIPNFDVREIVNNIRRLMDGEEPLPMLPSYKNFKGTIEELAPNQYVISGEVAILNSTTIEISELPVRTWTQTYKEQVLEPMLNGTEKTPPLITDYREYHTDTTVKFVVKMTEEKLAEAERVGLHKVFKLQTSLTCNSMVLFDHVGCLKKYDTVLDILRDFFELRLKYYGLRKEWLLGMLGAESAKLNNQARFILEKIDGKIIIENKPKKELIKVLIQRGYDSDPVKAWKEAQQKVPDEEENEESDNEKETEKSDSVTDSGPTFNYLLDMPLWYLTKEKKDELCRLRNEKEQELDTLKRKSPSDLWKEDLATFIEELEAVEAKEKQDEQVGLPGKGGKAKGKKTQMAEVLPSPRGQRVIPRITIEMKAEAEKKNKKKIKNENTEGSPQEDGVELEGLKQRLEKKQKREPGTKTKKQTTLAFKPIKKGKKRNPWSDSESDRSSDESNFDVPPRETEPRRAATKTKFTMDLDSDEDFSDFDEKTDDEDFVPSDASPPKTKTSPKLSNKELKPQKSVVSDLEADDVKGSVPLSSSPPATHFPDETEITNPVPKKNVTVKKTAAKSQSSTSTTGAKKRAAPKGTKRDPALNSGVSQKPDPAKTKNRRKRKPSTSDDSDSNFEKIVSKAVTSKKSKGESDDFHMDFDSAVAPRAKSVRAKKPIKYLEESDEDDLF
Experimental: In certain embodiments, activity of doxorubicin conjugates was assayed by monitoring alteration in the ability of Topoisomerase II, by electrophoresis, to catalyze the formation of relaxed conformation DNA from a super-coiled plasmid.
Specifically the kit was used to assay whether Doxorubicin conjugates altered the ability of Topoisomerase II to catalyze the formation of relaxed conformation DNA from a super-coiled plasmid. Doxorubicin conjugates were compared directly to Doxorubicin at 10, 3, 1, 0.3, 0.1 and 0.03 micromolar concentrations. The quantity of relaxed conformation DNA was quantified from an agarose gel on which is it is separated from the super-coiled DNA by standard electrophoresis. […] The results are presented in terms of percent activity of Doxorubicin.

Row | Ave. TK1 Kinase Act. [5] | SMILES | EC50 [1] | EC50 [2] | EC50 [3] | EC50 [4] | EC50 [6] | EC50 [7] | EC50 [8] | Ave. MPA Act [9] | EC50 [10] | EC50 [11] | Ave. MPA Act (doxorubicin) [12]
1 | A (A<20) | CC[C@]1(O)C[C@@H]2CN(CCc3c([nH]c4ccccc34)[C@@](C(=O)OC)(c3cc4c(cc3OC)N(C)[C@H]3[C@@](O)(C(=O)OC)[C@H](OC(C)=O)[C@]5(CC)C=CCN6CC[C@]43[C@@H]65)C2)C1 [Vinblastine] | < 100 nM | < 100 nM | < 100 nM | < 100 nM | < 100 nM | 1 to 2 nM | < 100 nM | C (C>100) | < 100 nM |  | 
2 | A (A<20) | COc1cccc2c1C(=O)c1c(O)c3c(c(O)c1C2=O)C[C@@](O)(C(=O)CO)C[C@@H]3O[C@H]1C[C@H](N)[C@H](O)[C@H](C)O1 [Doxorubicin] | < 100 nM |  |  |  |  |  | 100 to 1000 nM |  | < 100 nM | < 100 nM | C (C>100)
3 |  | CC[C@]1(O)CC2CN(CCc3c([nH]c4ccccc34)[C@@](C(=O)OC)(c3cc4c(cc3OC)N(C)[C@H]3C(O)(C(=O)NCCOCCOCCOCCN)[C@H](O)[C@]5(CC)C=CCN6CCC43[C@@H]65)C2)C1 (stereo partly drawn) [VBL-3Am-PEG(11)-NH2, deacetylvinblastine-3-(amido-PEG-amine)] | < 100 nM | < 100 nM | < 100 nM | < 100 nM | < 100 nM |  | 100 to 1000 nM | B (B=60-100) | 100 to 1000 nM | < 100 nM | 

Row | SMILES | Ave. TK1 Kinase Act. [5] | EC50 [1] | EC50 [2] | EC50 [3] | EC50 [4] | EC50 [6] | EC50 [7] | EC50 [8] | Ave. MPA Act [9] | EC50 [10] | EC50 [11] | Ave. MPA Act (doxorubicin) [12]
4 | COc1cccc2c1C(=O)c1c(O)c3c(c(O)c1C2=O)C[C@@](O)(C(=O)CO)C[C@@H]3OC1CC(NCCCN2C(=O)CC(SCCC(=O)NCCCCCCn3c(=O)c(C)cn([C@H]4CC(O)[C@@H](CO)O4)c3=O)C2=O)C(O)C(C)O1 (stereo partly drawn) [DOX-3′ALK-MALa(17)-N3-THY] | A (A<20) | > 1000 nM |  |  |  |  |  |  |  | > 1000 nM | > 1000 nM | A (A<60)
